# Measurements published in patent US12655116B2, “Substituted isophthalic acid diamides” (Bayer Aktiengesellschaft, priority 2020, dated 2026).
# Legend:
# [1] = system: ABUTH; test: Post-emergence herbicidal action against ABUTH; assay type: in vivo, Abutilon theophrasti; details: visual assessment about 3 weeks after treatment vs untreated controls
# In short: (§1)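 Sandy loam, greenhouse; treatment 2–3 weeks after sowing, one-leaf stage. Aqueous suspension or emulsion from WP/EC sprayed on foliage (600–800 l/ha, 0.2% wetting agent). Readout: visual % action, ~3 weeks.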
# [2] = system: AVEFA; test: Pre-emergence herbicidal action against AVEFA; assay type: in vivo, Avena fatua
# In short: (§2)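 Seeds sown in sandy loam, soil-covered; compound sprayed on soil surface pre-emergence. Application: WP/EC, 600–800 l/ha, 0.2% wetting agent. Readout: visual % damage at 3 weeks.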
# [3] = system: VERPE; test: Pre-emergence herbicidal action against VERPE; assay type: in vivo, Veronica persica; details: dosage 80 g/ha
# In short: as §2
# [4] = system: VIOTR; test: Pre-emergence herbicidal action against VIOTR; assay type: in vivo, Viola tricolor
# In short: as §2
# [5] = system: MATIN; test: Post-emergence herbicidal action against MATIN; assay type: in vivo, Matricaria inodora; details: dosage 20 g/ha
# In short: as §1
# [6] = system: MATIN; test: Pre-emergence herbicidal action against MATIN; assay type: in vivo, Matricaria inodora
# In short: as §2
# [7] = system: VIOTR; test: Post-emergence herbicidal action against VIOTR; assay type: in vivo, Viola tricolor
# In short: as §1
# [8] = system: DIGSA; test: Pre-emergence herbicidal action against DIGSA; assay type: in vivo, Digitaria sanguinalis; details: Digitaria sanguinalis, 504 h
# In short: as §2
# [9] = system: AMARE; test: Pre-emergence herbicidal action against AMARE; assay type: in vivo, Amaranthus retroflexus
# In short: as §2
# [10] = system: ALOMY; test: Post-emergence herbicidal action against ALOMY; assay type: in vivo, Alopecurus myosuroides; details: dosage 20 g/ha, visual assessment about 3 weeks after treatment vs untreated controls
# In short: as §1
# [11] = system: DIGSA; test: Post-emergence herbicidal action against DIGSA; assay type: in vivo, Digitaria sanguinalis; details: Digitaria sanguinalis, 504 h, 20 g/ha
# In short: as §1
# [12] = system: LOLRI; test: Pre-emergence herbicidal action against LOLRI; assay type: in vivo, Lolium rigidum; details: 80 g/ha
# In short: as §2
# [13] = system: POLCO; test: Pre-emergence herbicidal action against POLCO; assay type: in vivo, Polygonum convolvulus; details: dosage 80 g/ha
# In short: as §2
# [14] = system: ALOMY; test: Pre-emergence herbicidal action against ALOMY; assay type: in vivo, Alopecurus myosuroides
# In short: as §2
# [15] = system: PHBPU; test: Pre-emergence herbicidal action against PHBPU; assay type: in vivo, Pharbitis purpurea
# In short: as §2
# [16] = system: ECHCG; test: Post-emergence herbicidal action against ECHCG; assay type: in vivo, Echinochloa crus-galli; details: dosage 20 g/ha
# In short: as §1
# [17] = system: ECHCG; test: Pre-emergence herbicidal action against ECHCG; assay type: in vivo, Echinochloa crus-galli; details: 80 g/ha
# In short: as §2
# [18] = system: AMARE; test: Post-emergence herbicidal action against AMARE; assay type: in vivo, Amaranthus retroflexus; details: 20 g/ha, visual assessment about 3 weeks after treatment, 100% = plants have died, 0% = like control plants
# In short: as §1
# [19] = system: ABUTH; test: Pre-emergence herbicidal action against ABUTH; assay type: in vivo, Abutilon theophrasti
# In short: as §2
# [20] = system: SETVI; test: Post-emergence herbicidal action against SETVI; assay type: in vivo, Setaria viridis
# In short: as §1
# [21] = system: SETVI; test: Pre-emergence herbicidal action against SETVI; assay type: in vivo, Setaria viridis
# In short: as §2
# [22] = system: PHBPU; test: Post-emergence herbicidal action against PHBPU; assay type: in vivo, Pharbitis purpurea
# In short: as §1
# [23] = Setaria viridis, 504 h, dosage 20 g/ha
# [24] = 20 g/ha, scored visually after 3 weeks, 100% = plants have died, 0% = like control plants
# [25] = 80 g/ha, scored visually after 3 weeks vs untreated controls (100% = plants have died, 0% = like control plants)
smiles,measurement,setting,value
CCn1nnnc1NC(=O)c1ccc(I)c(C(=O)NC2CC2)c1Cl [Example 2-197],pest or weed control at 20 g/ha,"[1]; Abutilon theophrasti, 504 h, dosage 20 g/ha",80%
same,pest or weed control at 80 g/ha,"[2]; Avena fatua, 504 h, 80 g/ha, pre-emergence",100%
same,pest or weed control at 20 g/ha,"[2]; Avena fatua, pre-emergence, 504 h, 20 g/ha, scored visually after 3 weeks, 100% = plants have died, 0% = like control plants",80%
same,pest or weed control at 80 g/ha,"[3]; Veronica persica, 504 h",90%
same,pest or weed control at 20 g/ha,"[4]; Viola tricolor, 504 h, dosage 20 g/ha",100%
same,pest or weed control at 80 g/ha,"[4]; Viola tricolor, 504 h, dosage 80 g/ha",100%
same,pest or weed control at 20 g/ha,"[5]; Tripleurospermum inodorum, 504 h",80%
same,pest or weed control at 20 g/ha,"[6]; Tripleurospermum inodorum, 504 h, dosage 20 g/ha",80%
same,pest or weed control at 80 g/ha,"[6]; Tripleurospermum inodorum, 504 h, dosage 80 g/ha",100%
same,pest or weed control at 5 g/ha,"[7]; Viola tricolor, 504 h, 5 g/ha",80%
same,pest or weed control at 20 g/ha,"[7]; Viola tricolor, 504 h, 20 g/ha",100%
same,pest or weed control at 20 g/ha,[8]; dosage 20 g/ha,100%
same,pest or weed control at 80 g/ha,[8]; dosage 80 g/ha,100%
same,pest or weed control at 20 g/ha,"[9]; Amaranthus retroflexus, 504 h, 20 g/ha, scored visually after 3 weeks vs untreated controls, 100% = plants have died, 0% = like control plants",100%
same,pest or weed control at 80 g/ha,"[9]; Amaranthus retroflexus, 504 h, 80 g/ha, scored visually after 3 weeks vs untreated controls, 100% = plants have died, 0% = like control plants",100%
same,pest or weed control at 20 g/ha,"[10]; Alopecurus myosuroides, 504 h",90%
same,pest or weed control at 20 g/ha,[11],90%
same,pest or weed control at 80 g/ha,"[12]; Lolium rigidum, 504 h",90%
same,pest or weed control at 80 g/ha,"[13]; Fallopia convolvulus, 504 h",100%
same,pest or weed control at 80 g/ha,"[14]; Alopecurus myosuroides, 504 h, 80 g/ha, pre-emergence, scored visually after 3 weeks vs untreated controls (100% = plants have died, 0% = like control plants)",90%
same,pest or weed control at 20 g/ha,"[15]; Ipomoea purpurea, 504 h, dosage 20 g/ha",80%
same,pest or weed control at 80 g/ha,"[15]; Ipomoea purpurea, 504 h, dosage 80 g/ha",90%
same,pest or weed control at 20 g/ha,"[16]; Echinochloa crus-galli, 504 h",90%
same,pest or weed control at 80 g/ha,"[17]; Echinochloa crus-galli, 504 h",100%
same,pest or weed control at 20 g/ha,"[18]; Amaranthus retroflexus, 504 h",90%
same,pest or weed control at 80 g/ha,"[19]; Abutilon theophrasti, 504 h, 80 g/ha, scored visually after 3 weeks vs untreated controls (100% = plants have died, 0% = like control plants)",100%
same,pest or weed control at 5 g/ha,"[20]; Setaria viridis, 504 h, dosage 5 g/ha",80%
same,pest or weed control at 20 g/ha,[20]; [23],100%
same,pest or weed control at 20 g/ha,[21]; [23],90%
same,pest or weed control at 80 g/ha,"[21]; Setaria viridis, 504 h, dosage 80 g/ha",100%
CCc1c(C(=O)Nc2nnnn2CC)ccc(C(F)(F)F)c1C(=O)NCC(F)F [Example 2-276],Post-emergence action against ABUTH in %,[1]; dosage 5 g/ha,80%
same,Post-emergence action against ABUTH in %,[1]; dosage 20 g/ha,80%
same,Pre-emergence action against AVEFA,[2]; [24],80%
same,Pre-emergence action against AVEFA in %,"[2]; 80 g/ha, pre-emergence",90%
same,Pre-emergence action against VERPE in %,[3],80%
same,Pre-emergence action against VIOTR in %,[4]; dosage 20 g/ha,100%
same,Pre-emergence action against VIOTR in %,[4]; dosage 80 g/ha,100%
same,Post-emergence action against MATIN in %,[5],90%
same,Pre-emergence action against MATIN in %,[6]; dosage 20 g/ha,100%
same,Pre-emergence action against MATIN in %,[6]; dosage 80 g/ha,100%
same,Post-emergence action against VIOTR in %,[7]; 20 g/ha,80%
same,Post-emergence action against PHBPU in %,[22]; dosage 5 g/ha,80%
same,Post-emergence action against PHBPU in %,[22]; dosage 20 g/ha,90%
same,Pre-emergence action against AMARE in %,"[9]; 20 g/ha, scored visually after 3 weeks vs untreated controls, 100% = plants have died, 0% = like control plants",100%
same,Pre-emergence action against AMARE in %,[9]; [25],100%
same,Post-emergence action against ALOMY in %,[10],80%
same,Pre-emergence action against LOLRI in %,[12],80%
same,Pre-emergence action against POLCO in %,[13],90%
same,Pre-emergence action against ALOMY,[14]; [24],90%
same,Pre-emergence action against ALOMY (herbicidal activity),"[14]; 80 g/ha, pre-emergence, scored visually after 3 weeks vs untreated controls (100% = plants have died, 0% = like control plants)",90%
same,Pre-emergence action against PHBPU in %,[15]; dosage 80 g/ha,90%
same,Post-emergence action against ECHCG in %,[16],90%
same,Pre-emergence action against ECHCG in %,[17],80%
same,Post-emergence action at 20 g/ha against AMARE in %,[18],90%
same,Pre-emergence action against ABUTH (herbicidal activity),[19]; [25],100%
same,Pre-emergence action against ABUTH (herbicidal activity in percent),"[19]; dosage 20 g/ha, scored visually after 3 weeks vs untreated controls, 100% = plants have died, 0% = like control plants",100%
same,Post-emergence action against SETVI in %,[20]; dosage 20 g/ha,80%
same,Pre-emergence action against SETVI in %,[21]; dosage 80 g/ha,100%
